Laboratory results as given in patent publication US20240116985A1, “STAPLED PEPTIDES AND METHODS THEREOF” (priority 2020, published 2024).

Assay: CHI Log D procedure
Format: physicochemical
Conditions: for chromatographic logD: pH 7.4, CHI Log D; for CHI Log D: pH 7.4

Structure (SMILES) | chromatographic logD | CHI Log D
CC(=O)N[C@@H](Cc1ccccc1)C(=O)N[C@@H](CC(=O)O)C(=O)N[C@@H](C)C(=O)N[C@]1(C)CCCN(C)C(=O)OCC=CCCC[C@@](C)(C(=O)N[C@@H](Cc2ccccc2)C(=O)N[C@@H](Cc2c[nH]c3ccccc23)C(=O)N[C@@H](CCC(N)=O)C(N)=O)NC(=O)[C@H](C(C)C)NC(=O)[C@H](Cc2ccccc2)NC(=O)[C@H](C)NC(=O)[C@H](C)NC(=O)[C@H](CC(=O)O)NC(=O)[C@H](CC(=O)O)NC1=O [I-27, Ac-Phe-Asp-Ala-ReN-Asp-Asp-Ala-Ala-Phe-Val-S5-Phe-Trp-Gln-NH2] | 1.15 | –
CC(=O)N[C@@H](Cc1ccccc1)C(=O)N[C@@H](CC(=O)O)C(=O)N[C@@H](C)C(=O)N[C@]1(C)CCCN(C)C(=O)OCC=CCCCC[C@@](C)(C(=O)N[C@@H](Cc2ccccc2)C(=O)N[C@@H](Cc2c[nH]c3ccccc23)C(=O)N[C@@H](CCC(N)=O)C(N)=O)NC(=O)[C@H](C(C)C)NC(=O)[C@H](Cc2ccccc2)NC(=O)[C@H](C)NC(=O)[C@H](C)NC(=O)[C@H](CC(=O)O)NC(=O)[C@H](CC(=O)O)NC1=O [I-28, Ac-Phe-Asp-Ala-ReN-Asp-Asp-Ala-Ala-Phe-Val-S6-Phe-Trp-Gln-NH2] | – | 1.219
CC(=O)N[C@@H](Cc1ccccc1)C(=O)N[C@@H](CC(=O)O)C(=O)N[C@@H](C)C(=O)NC12CN(C1)C(=O)OCC=CCCCCC[C@@](C)(C(=O)N[C@@H](Cc1ccccc1)C(=O)N[C@@H](Cc1c[nH]c3ccccc13)C(=O)N[C@@H](CCC(N)=O)C(N)=O)NC(=O)[C@H](C(C)C)NC(=O)[C@H](Cc1ccccc1)NC(=O)[C@H](C)NC(=O)[C@H](C)NC(=O)[C@H](CC(=O)O)NC(=O)[C@H](CC(=O)O)NC2=O [I-32, Ac-Phe-Asp-Ala-Az-Asp-Asp-Ala-Ala-Phe-Val-S7-Phe-Trp-Gln-NH2] | – | 1.243
CC(=O)N[C@@H](Cc1ccccc1)C(=O)N[C@@H](CC(=O)O)C(=O)N[C@@H](C)C(=O)NC12CN(C1)C(=O)OCC=CCCCCC[C@@](C)(C(=O)N[C@@H](Cc1ccccc1)C(=O)N[C@@H](Cc1c[nH]c3ccccc13)C(=O)N[C@@H](CCC(N)=O)C(N)=O)NC(=O)[C@H](C(C)C)NC(=O)[C@H](Cc1ccccc1)NC(=O)[C@H](C)NC(=O)[C@H](C)NC(=O)[C@H](CC(=O)O)NC(=O)[C@H](CC(=O)O)NC2=O [I-33, Ac-Phe-Asp-Ala-Az-Asp-Asp-Ala-Ala-Phe-Val-S7-Phe-Trp-Gln-NH2] | – | 1.228
CC(=O)N[C@@H](Cc1ccccc1)C(=O)N[C@@H](CC(=O)O)C(=O)N[C@@H](C)C(=O)N[C@]1(C)CCCCCCC=CCOC(=O)N(C)C[C@@](C)(C(=O)N[C@@H](Cc2ccccc2)C(=O)N[C@@H](Cc2c[nH]c3ccccc23)C(=O)N[C@@H](CCC(N)=O)C(N)=O)NC(=O)[C@H](C(C)C)NC(=O)[C@H](Cc2ccccc2)NC(=O)[C@H](C)NC(=O)[C@H](C)NC(=O)[C@H](CC(=O)O)NC(=O)[C@H](CC(=O)O)NC1=O [I-34, Ac-Phe-Asp-Ala-R8-Asp-Asp-Ala-Ala-Phe-Val-SgN-Phe-Trp-Gln-NH2] | 1.32 | –
CC(=O)N[C@@H](Cc1ccccc1)C(=O)N[C@@H](CC(=O)O)C(=O)N[C@@H](C)C(=O)N[C@]1(C)CCC=CCOC(=O)N(C)CCC[C@@](C)(C(=O)N[C@@H](Cc2ccccc2)C(=O)N[C@@H](Cc2c[nH]c3ccccc23)C(=O)N[C@@H](CCC(N)=O)C(N)=O)NC(=O)[C@H](C(C)C)NC(=O)[C@H](Cc2ccccc2)NC(=O)[C@H](C)NC(=O)[C@H](C)NC(=O)[C@H](CC(=O)O)NC(=O)[C@H](CC(=O)O)NC1=O [I-36, Ac-Phe-Asp-Ala-R4-Asp-Asp-Ala-Ala-Phe-Val-SeN-Phe-Trp-Gln-NH2] | 1.13 | –
CC(=O)N[C@@H](Cc1ccccc1)C(=O)N[C@@H](CC(=O)O)C(=O)N[C@@H](C)C(=O)N[C@]1(C)CCCC=CCOC(=O)N(C)CC[C@@](C)(C(=O)N[C@@H](Cc2ccccc2)C(=O)N[C@@H](Cc2c[nH]c3ccccc23)C(=O)N[C@@H](CCC(N)=O)C(N)=O)NC(=O)[C@H](C(C)C)NC(=O)[C@H](Cc2ccccc2)NC(=O)[C@H](C)NC(=O)[C@H](C)NC(=O)[C@H](CC(=O)O)NC(=O)[C@H](CC(=O)O)NC1=O [I-37, Ac-Phe-Asp-Ala-R5-Asp-Asp-Ala-Ala-Phe-Val-SdN-Phe-Trp-Gln-NH2] | 1.16 | –
CC(=O)N[C@@H](Cc1ccccc1)C(=O)N[C@@H](CC(=O)O)C(=O)N[C@@H](C)C(=O)N[C@]1(C)CCN(C)C(=O)OCC=CCC[C@@](C)(C(=O)N[C@@H](Cc2ccccc2)C(=O)N[C@@H](Cc2c[nH]c3ccccc23)C(=O)N[C@@H](CCC(N)=O)C(N)=O)NC(=O)[C@H](C(C)C)NC(=O)[C@H](Cc2ccccc2)NC(=O)[C@H](C)NC(=O)[C@H](C)NC(=O)[C@H](CC(=O)O)NC(=O)[C@H](CC(=O)O)NC1=O [I-42, Ac-Phe-Asp-Ala-RdN-Asp-Asp-Ala-Ala-Phe-Val-S4-Phe-Trp-Gln-NH2] | – | 1.09
CCCC[C@@H]1NC(=O)[C@H](CC(=O)O)NC(=O)[C@](C)(NC(=O)[C@@H](NC(=O)[C@H](CC(=O)O)NC(=O)[C@H](C)NC(C)=O)[C@@H](C)CC)CCN(C)C(=O)OCC=CCCCCC[C@@](C)(C(=O)N[C@@H](Cc2ccccc2)C(=O)N[C@@H](Cc2c[nH]c3ccccc23)C(=O)N[C@@H](Cc2c[nH]cn2)C(N)=O)NC(=O)[C@H](CCC(N)=O)NC(=O)[C@H](Cc2ccccc2)NC(=O)[C@H](C)NC(=O)[C@H](C)NC1=O [I-68, Ac-Ala-Asp-Ile-RdN-Asp-nLeu-Ala-Ala-Phe-Gln-S7-Phe-Trp-His-NH2] | – | 1.553
CCCC[C@@H]1NC(=O)[C@H](C)NC(=O)[C@H](C)NC(=O)[C@H](CC(=O)O)NC(=O)[C@H](CC(=O)O)NC(=O)[C@](C)(NC(=O)[C@H](C)NC(=O)[C@H](CC(=O)O)NC(=O)[C@H](Cc2ccccc2)NC(C)=O)CCCCCCC=CCOC(=O)N2CC[C@@](C(=O)N[C@@H](Cc3ccccc3)C(=O)N[C@@H](Cc3c[nH]c4ccccc34)C(=O)N[C@@H](CCC(N)=O)C(N)=O)(C2)NC(=O)[C@H](C(C)C)NC1=O [I-76, Ac-Phe-Asp-Ala-R8-Asp-Asp-Ala-Ala-nLeu-Val-PyrS-Phe-Trp-Gln-NH2] | 1.2 | –
CC(=O)N[C@@H](Cc1ccccc1)C(=O)N[C@@H](CC(=O)O)C(=O)N[C@@H](C)C(=O)N[C@]1(C)CCCCCCC=CCOC(=O)N2CC[C@@](C(=O)N[C@@H](Cc3ccccc3)C(=O)N[C@@H](Cc3c[nH]c4ccccc34)C(=O)N[C@@H](CCC(N)=O)C(N)=O)(C2)NC(=O)[C@H](C(C)C)NC(=O)[C@H](Cc2ccc(C(N)=O)cc2)NC(=O)[C@H](C)NC(=O)[C@H](C)NC(=O)[C@H](CC(=O)O)NC(=O)[C@H](CC(=O)O)NC1=O [I-92, Ac-Phe-Asp-Ala-R8-Asp-Asp-Ala-Ala-4CBMF-Val-PyrS-Phe-Trp-Gln-NH2] | – | 1.199
CC(=O)N[C@@H](Cc1ccccc1)C(=O)N[C@@H](CC(=O)O)C(=O)N[C@@H](C)C(=O)N[C@]1(C)CCCCCCC=CCOC(=O)N2CC[C@@](C(=O)N[C@@H](Cc3ccccc3)C(=O)N[C@@H](Cc3c[nH]c4ccccc34)C(=O)N[C@@H](CCC(N)=O)C(N)=O)(C2)NC(=O)[C@H](C(C)C)NC(=O)[C@H](Cc2ccccc2)NC(=O)[C@H](C)NC(=O)[C@H](C)NC(=O)[C@H](Cc2ccccc2)NC(=O)[C@H](CC(=O)O)NC1=O [I-100, Ac-Phe-Asp-Ala-R8-Asp-Phe-Ala-Ala-Phe-Val-PyrS-Phe-Trp-Gln-NH2] | – | 1.993

Now from value to molecule:

chromatographic logD | CHI Log D | Structure (SMILES)
1.21 | – | CC(=O)N[C@@H](Cc1ccccc1)C(=O)N[C@@H](CC(=O)O)C(=O)N[C@@H](C)C(=O)N[C@]1(C)CCCCCC=CCOC(=O)N2CC(C(=O)N[C@@H](Cc3ccccc3)C(=O)N[C@@H](Cc3c[nH]c4ccccc34)C(=O)N[C@@H](CCC(N)=O)C(N)=O)(C2)NC(=O)[C@H](C(C)C)NC(=O)[C@H](Cc2ccccc2)NC(=O)[C@H](C)NC(=O)[C@H](C)NC(=O)[C@H](CC(=O)O)NC(=O)[C@H](CC(=O)O)NC1=O [I-38, Ac-Phe-Asp-Ala-R7-Asp-Asp-Ala-Ala-Phe-Val-Az-Phe-Trp-Gln-NH2]
1.25 | – | CC(=O)N[C@@H](Cc1ccccc1)C(=O)N[C@@H](CC(=O)O)C(=O)N[C@]1(C)CCCCCCC=CCOC(=O)N2CC[C@@](C(=O)N[C@@H](C)C(=O)N[C@@H](Cc3ccccc3)C(=O)N[C@@H](Cc3c[nH]c4ccccc34)C(=O)N[C@@H](CCC(N)=O)C(N)=O)(C2)NC(=O)[C@H](Cc2ccccc2)NC(=O)[C@H](C)NC(=O)[C@H](C)NC(=O)[C@H](CC(=O)O)NC(=O)[C@H](CC(=O)O)NC(=O)[C@H](C)NC1=O [I-51, Ac-Phe-Asp-R8-Ala-Asp-Asp-Ala-Ala-Phe-PyrS-Ala-Phe-Trp-Gln-NH2]
– | 1.531 | CC(=O)N[C@@H](Cc1ccccc1)C(=O)N[C@@H](CC(=O)O)C(=O)N[C@@H](C)C(=O)N[C@]1(C)CCCCCCC=CCOC(=O)N2CC[C@@](C(=O)N[C@@H](Cc3ccccc3)C(=O)N[C@@H](Cc3c[nH]c4ccccc34)C(=O)N[C@@H](CCC(N)=O)C(N)=O)(C2)NC(=O)[C@H](C(C)C)NC(=O)[C@H](Cc2ccccc2)NC(=O)[C@H](C)NC(=O)[C@H](C)NC(=O)[C@H](CCC(N)=O)NC(=O)[C@H](CC(=O)O)NC1=O [I-59, Ac-Phe-Asp-Ala-R8-Asp-Gln-Ala-Ala-Phe-Val-PyrS-Phe-Trp-Gln-NH2]
1.28 | – | CC(=O)N[C@@H](Cc1ccccc1)C(=O)N[C@@H](CC(=O)O)C(=O)N[C@@H](C)C(=O)N[C@]1(C)CCCCCCC=CCOC(=O)N2CC[C@@](C(=O)N[C@@H](Cc3ccccc3)C(=O)N[C@@H](Cc3c[nH]c4ccccc34)C(=O)N[C@@H](CCC(N)=O)C(N)=O)(C2)NC(=O)[C@H](C(C)C)NC(=O)[C@H](Cc2cccc(F)c2)NC(=O)[C@H](C)NC(=O)[C@H](C)NC(=O)[C@H](CC(=O)O)NC(=O)[C@H](CC(=O)O)NC1=O [I-77, Ac-Phe-Asp-Ala-R8-Asp-Asp-Ala-Ala-3FF-Val-PyrS-Phe-Trp-Gln-NH2]
1.24 | – | CC(=O)N[C@@H](Cc1ccccc1)C(=O)N[C@@H](CC(=O)O)C(=O)N[C@@H](C)C(=O)N[C@]1(C)CCCCCCC=CCOC(=O)N2CC[C@@](C(=O)N[C@@H](Cc3ccccc3)C(=O)N[C@@H](Cc3c[nH]c4ccccc34)C(=O)N[C@@H](CCC(N)=O)C(N)=O)(C2)NC(=O)[C@H](C(C)C)NC(=O)[C@H](Cc2ccccn2)NC(=O)[C@H](C)NC(=O)[C@H](C)NC(=O)[C@H](CC(=O)O)NC(=O)[C@H](CC(=O)O)NC1=O [I-86, Ac-Phe-Asp-Ala-R8-Asp-Asp-Ala-Ala-2PyrA-Val-PyrS-Phe-Trp-Gln-NH2]
